Assay results published in patent US20230416225A1, “DIAMINOPYRIMIDINE CARBOXAMIDE INHIBITORS OF HPK1” (MERCK SHARP & DOHME LLC, priority 2020, published 2023).

molecular target: T1, Human HPK1, catalytic domain (Homo sapiens, UniProt Q92918); assay: HPK1-SLP76 TR-FRET assay; assay type: biochemical; settings: 75 pM HPK1, 10 uM ATP, 10 nM SLP76, 30 min compound pre-incubation
T1 construct: purchased Carna
T1 sequence (Q92918 1-346): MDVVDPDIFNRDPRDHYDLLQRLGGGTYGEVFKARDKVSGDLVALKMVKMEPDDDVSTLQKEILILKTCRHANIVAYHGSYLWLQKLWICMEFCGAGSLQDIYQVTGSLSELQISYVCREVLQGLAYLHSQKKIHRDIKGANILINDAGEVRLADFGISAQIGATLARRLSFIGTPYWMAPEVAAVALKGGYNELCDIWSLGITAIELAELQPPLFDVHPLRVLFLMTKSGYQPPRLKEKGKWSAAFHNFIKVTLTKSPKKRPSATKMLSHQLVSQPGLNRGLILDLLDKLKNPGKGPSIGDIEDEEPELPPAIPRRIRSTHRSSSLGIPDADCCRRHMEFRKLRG

| Structure (SMILES) | IC50 [nM] |
| --- | --- |
| COc1nn(CC(F)(F)F)cc1Nc1ncc(C(N)=O)c(Nc2cccc3c2CCN(C)C3)n1 [Example 7-62, 2-{[3-methoxy-1-(2,2,2-trifluoroethyl)-1H-pyrazol-4-yl]amino}-4-[(2-methyl-1,2,3,4-tetrahydroisoquinolin-5-yl)amino]pyrimidine-5-carboxamide] | 56 |
| COc1cc2c(cc1Nc1ncc(C(N)=O)c(NC3CC4CCC(C3)N4)n1)CN(C)CC2 (stereo not drawn) [Example 26-27, 4-[(8-azabicyclo[3.2.1]octan-3-yl)amino]-2-[(6-methoxy-2-methyl-1,2,3,4-tetrahydroisoquinolin-7-yl)amino]pyrimidine-5-carboxamide] | 106 |
| NC(=O)c1cnc(Nc2cc3n(n2)CCC3)nc1Nc1cccc2c1CCNC2=O [Example 7-58, 2-[(5,6-dihydro-4H-pyrrolo[1,2-b]pyrazol-2-yl)amino]-4-[(1-oxo-1,2,3,4-tetrahydroisoquinolin-5-yl)amino]pyrimidine-5-carboxamide] | 3.65 |
| COc1cc2c(cc1Nc1ncc(C(N)=O)c(Nc3c(C)cc(C#N)cc3F)n1)CN(C)CC2 [Example 4-33, 4-[(4-cyano-2-fluoro-6-methylphenyl)amino]-2-[(6-methoxy-2-methyl-1,2,3,4-tetrahydroisoquinolin-7-yl)amino]pyrimidine-5-carboxamide] | 0.44 |
| COc1cc2c(cc1Nc1ncc(C(N)=O)c(Nc3ccccc3Br)n1)CN(C1CCOCC1)CC2 [Example 9-7, 4-[(2-bromophenyl)amino]-2-{[6-methoxy-2-(oxan-4-yl)-1,2,3,4-tetrahydroisoquinolin-7-yl]amino}pyrimidine-5-carboxamide] | 0.84 |
| COc1cc2c(cc1Nc1ncc(C(N)=O)c(N[C@@H]3CCCC[C@H]3C(F)F)n1)CN(C)CC2 [Example 26-33, 4-{[(1R,2R)-2-(difluoromethyl)cyclohexyl]amino}-2-[(6-methoxy-2-methyl-1,2,3,4-tetrahydroisoquinolin-7-yl)amino]pyrimidine-5-carboxamide] | 0.46 |
| COc1cc2c(cc1Nc1ncc(C(N)=O)c(Nc3ccccc3Br)n1)CN(S(=O)(=O)C(C)C)CC2 [Example 10-7, 4-[(2-bromophenyl)amino]-2-({6-methoxy-2-[(propan-2-yl)sulfonyl]-1,2,3,4-tetrahydroisoquinolin-7-yl}amino)pyrimidine-5-carboxamide] | 52.6 |
| COCCOCCOCC(=O)N1CCc2cc(OC)c(Nc3ncc(C(N)=O)c(Nc4ccccc4Br)n3)cc2C1 [Example 12-1, 4-[(2-bromophenyl)amino]-2-[(6-methoxy-2-{[2-(2-methoxyethoxy)ethoxy)accetyl}-1,2,3,4-tetrahydroisoquinolin-7-yl)amino]pyrimidine-5-carboxamide] | 117 |
| NC(=O)c1cnc(Nc2cccc3c2CCC3)nc1Nc1cccc2c1CCNC2=O [Example 25-34, 2-[(2,3-dihydro-1H-inden-4-yl)amino]-4-[(1-oxo-1,2,3,4-tetrahydroisoquinolin-5-yl)amino]pyrimidine-5-carboxamide] | 24.6 |
| COc1cc2c(cc1Nc1ncc(C(N)=O)c(N[C@H]3CCCc4cc(F)ccc43)n1)CN(C)CC2 [Example 26-47, 4-{[(1S)-6-fluoro-1,2,3,4-tetrahydronaphthalen-1-yl]amino}-2-[(6-methoxy-2-methyl-1,2,3,4-tetrahydroisoquinolin-7-yl)amino]pyrimidine-5-carboxamide] | 3.01 |
| CCn1nc(C)cc1Nc1nc(Nc2cc3c(cc2OC)CCN(C)C3)ncc1C(N)=O [Example 7-79, 4-((1-ethyl-3-methyl-1H-pyrazol-5-yl)amino)-2-((6-methoxy-2-methyl-1,2,3,4-tetrahydroisoquinolin-7-yl)amino)pyrimidine-5-carboxamide] | 105 |
| COc1cc2c(cc1Nc1ncc(C(N)=O)c(N[C@@H]3c4ccccc4C[C@@H]3O)n1)CN(C)CC2 [Example 26-64, 4-{[(1R,2S)-2-hydroxy-2,3-dihydro-1H-inden-1-yl]amino}-2-[(6-methoxy-2-methyl-1,2,3,4-tetrahydroisoquinolin-7-yl)amino]pyrimidine-5-carboxamide] | 0.86 |
| COc1cc2c(cc1Nc1ncc(C(N)=O)c(Nc3ccccc3OC(F)(F)F)n1)CN(C)CC2 [Example 7-115, 2-[(6-methoxy-2-methyl-1,2,3,4-tetrahydroisoquinolin-7-yl)amino]-4-{[2-(trifluoromethoxy)phenyl]amino} pyrimidine-5-carboxamide] | 0.2 |
| COc1cc2c(cc1Nc1ncc(C(N)=O)c(Nc3ccccc3Br)n1)CN(C(=O)C(C)C)CC2 [Example 12-3, 4-[(2-bromophenyl)amino]-2-{[6-methoxy-2-(2-methylpropanoyl)-1,2,3,4-tetrahydroisoquinolin-7-yl]amino}pyrimidine-5-carboxamide] | 598 |
| NC(=O)c1cnc(Nc2cccc(C(F)(F)F)c2)nc1Nc1cccc2c1CCNC2=O [Example 25-18, 4-[(1-oxo-1,2,3,4-tetrahydroisoquinolin-5-yl)amino]-2-{[3-(trifluoromethyl)phenyl]amino}pyrimidine-5-carboxamide] | 20.1 |
| COc1cc2c(cc1Nc1ncc(C(N)=O)c(Nc3ccccc3CC3(C#N)CCC3)n1)CN(C)CC2 [Example 13-11, 4-({2-[(1-cyanocyclobutyl)methyl]phenyl}amino)-2-[(6-methoxy-2-methyl-1,2,3,4-tetrahydroisoquinolin-7-yl)amino]pyrimidine-5-carboxamide] | 0.4 |
| COC(=O)N1CCc2cc(OC)c(Nc3ncc(C(N)=O)c(Nc4ccccc4Br)n3)cc2C1 [Example 12-12, methyl 7-({4-[(2-bromophenyl)amino]-5-carbamoylpyrimidin-2-yl}amino)-6-methoxy-3,4-dihydroisoquinoline-2(1H)-carboxylate] | 284 |
| COc1cc2c(cc1Nc1ncc(C(N)=O)c(Nc3c(F)cc(I)cc3F)n1)CNCC2 [Example 9-12, 4-(2,6-difluoro-4-iodoanilino)-2-[(6-methoxy-1,2,3,4-tetrahydroisoquinolin-7-yl)amino]pyrimidine-5-carboxamide] | 1.83 |
| COc1cc2c(cc1Nc1ncc(C(N)=O)c(Nc3cccc(CCO)c3)n1)CNCC2 [Example 7-75, 4-{[3-(2-hydroxyethyl)phenyl]amino}-2-[(6-methoxy-1,2,3,4-tetrahydroisoquinolin-7-yl)amino]pyrimidine-5-carboxamide] | 0.99 |
| N#CC1(c2ccc(Nc3ncc(C(N)=O)c(Nc4ccccc4Br)n3)cc2)CC1 [Example 7-100, 4-[(2-bromophenyl)amino]-2-{[4-(1-cyanocyclopropyl)phenyl]amino} pyrimidine-5-carboxamide] | 30 |
| NC(=O)c1cnc(Nc2cnn3c2CCCC3)nc1Nc1cccc2c1CCNC2=O [Example 7-53, 4-[(1-oxo-1,2,3,4-tetrahydroisoquinolin-5-yl)amino]-2-[(4,5,6,7-tetrahydropyrazolo[1,5-a]pyridin-3-yl)amino]pyrimidine-5-carboxamide] | 3.94 |
| COc1cc2c(cc1Nc1ncc(C(N)=O)c(N[C@@H]3CCCC[C@H]3CO)n1)CN(C)CC2 [Example 26-32, 4-{[(1R,2R)-2-(hydroxymethyl)cyclohexyl]amino}-2-[(6-methoxy-2-methyl-1,2,3,4-tetrahydroisoquinolin-7-yl)amino]pyrimidine-5-carboxamide] | 1.02 |
| COc1cc2c(cc1Nc1ncc(C(=O)NN)c(Nc3ccccc3)n1)CN(C)CC2 [Example 18-1, 2-((6-Methoxy-2-methyl-1,2,3,4-tetrahydroisoquinolin-7-yl)amino)-4-(phenylamino)pyrimidine-5-carbohydrazide] | 23.6 |
| COc1cc(N2CCNCC2)ccc1Nc1ncc(C(N)=O)c(Nc2ccccc2Br)n1 [Example 7-10, 4-[(2-bromophenyl)amino]-2-{[2-methoxy-4-(piperazin-1-yl)phenyl]amino}pyrimidine-5-carboxamide] | 34.2 |
| COc1cc2c(cc1Nc1ncc(C(N)=O)c(Nc3cccc(C4(C#N)CC4)c3)n1)CN(C)CC2 [Example 7-32, 4-{[3-(1-cyanocyclopropyl)phenyl]amino}-2-[(6-methoxy-2-methyl-1,2,3,4-tetrahydroisoquinolin-7-yl)amino]pyrimidine-5-carboxamide] | 0.41 |
| Cn1cc(Nc2ncc(C(N)=O)c(Nc3cccc4c3CCNC4)n2)c(=O)[nH]1 [Example 7-11, 2-[(1-methyl-3-oxo-2,3-dihydro-1H-pyrazol-4-yl)amino]-4-[(1,2,3,4-tetrahydroisoquinolin-5-yl)amino]pyrimidine-5-carboxamide] | 111 |
| COc1cc2c(cc1Nc1ncc(C(N)=O)c(Nc3ccc(F)c(F)c3F)n1)CN(C)CC2 [Example 4-13, 2-[(6-methoxy-2-methyl-1,2,3,4-tetrahydroisoquinolin-7-yl)amino]-4-[(2,3,4-trifluorophenyl)amino] pyrimidine-5-carboxamide] | 2.4 |
| COc1ccc(Cl)cc1Nc1ncc(C(N)=O)c(Nc2cccc3c2CCNC3=O)n1 [Example 25-33, 2-[(5-chloro-2-methoxyphenyl)amino]-4-[(1-oxo-1,2,3,4-tetrahydroisoquinolin-5-yl)amino]pyrimidine-5-carboxamide] | 187 |
| COc1cc2c(cc1Nc1ncc(C(N)=O)c(Nc3ccccc3I)n1)CN(C)CC2 [Example 7-70, 4-[(2-iodophenyl)amino]-2-[(6-methoxy-2-methyl-1,2,3,4-tetrahydroisoquinolin-7-yl)amino]pyrimidine-5-carboxamide] | 0.15 |
| NC(=O)c1cnc(Nc2cnn(CC3CC3)c2)nc1Nc1cccc2c1CCNC2 [Example 7-8, 2-{[1-(cyclopropylmethyl)-1H-pyrazol-4-yl]amino}-4-[(1,2,3,4-tetrahydroisoquinolin-5-yl)amino]pyrimidine-5-carboxamide] | 1.48 |
